Reference: EP1581790B1, “PEPTIDES THAT HOME TO TUMOR LYMPHATIC VASCULATURE AND METHODS OF USING SAME” (The Burnham Institute, priority 2001, dated 2009)
Where no end group is shown, it is not given here.

Columns and labels:
normal tissues = assay: Localization of fluorescein-labeled peptide in normal tissues after intravenous injection; format: in vivo, mice
Description: Several normal tissues also were studied for localization of the CGNKRTRGC (SEQ ID NO: 1) peptide.
Detection of fluorescent peptides and biotin-conjugated tomato lectin was performed as follows. Fluorescein-conjugated peptide CGNKRTRGC (SEQ ID NO: 1) was prepared as described above. The peptide (100 µg in 200 µl of PBS) was injected into the tail vein of mice bearing MDA-MB-435 breast carcinoma tumors. After 10 minutes, biotin-conjugated lycopersicon esculentum (tomato) lectin (100 µg in 200 µl of PBS; Vector; Burlingame, California) was also injected into the tail vein. After 5 minutes, the mouse was perfused through the heart with 4% paraformaldehyde. Tissues were removed and frozen in O.C.T. embedding medium (Tissue-Tek; Torrence, California). Blood vessels were visualized by detecting the tomato lectin with streptavidin-conjugated Alexa 594 (Molecular Probes; Eugene, Oregon). Green staining indicated the presence of peptide SEQ ID NO: 1, while red staining indicated the presence of tomato lectin.

[1] = tested on: MDA-MB-435 tumor lymphatic vasculature; assay: Localization in 435 tumors after intravenous injection, with blood vessel and lymphatic markers
[2] = tested on: Cultured MDA-MB-435 cells; assay: Cytotoxicity in cell culture, trypan blue staining; format: cell-based
Description: Cultured MDA-MB-435 cells were incubated with a control peptide (CGEKRTRGC; SEQ ID NO: 3) or with CGNKRTRGC (SEQ ID NO: 1) at 37°C for 1, 2 or 4 hours. After staining with trypan blue, which is taken up by cells that are dead or dying, the total number of cells were counted, and the percentage of trypan blue stained cells determined. […] In particular, after four hours incubation, at least 7-fold greater trypan blue uptake was evident in cell cultures incubated with peptide SEQ ID NO: 1 as compared to cultures incubated with control peptide.

[3] = tested on: MDA-MB-435 human breast carcinoma cell xenografts; assay: Tumor treatment study; format: in vivo, nude mice; settings: 67 nmol intravenously twice a week; after about two weeks of treatment; Figure 8
Description: A tumor treatment study was performed using MDA-MB-435 human breast carcinoma cell xenografts prepared by subcutaneously injecting 1 x 10^6 cells in 200 µl PBS into nude mice. Mice (five per group) were treated intravenously twice a week with 67 nmol CGNKRTRGC peptide (SEQ ID NO: 1) or with PBS starting four weeks after tumor implantation. Tumor volumes were measured once a week for four weeks.

[4] = tested on: primary MDA-MB-435 breast carcinoma tumor cell suspensions; assay: Ex vivo binding of phage to primary 435 tumor cell suspensions; design: species or system Human; settings: addition of synthetic peptide
Description: Several ex vivo selections were performed with 435 tumor cell suspensions prepared from MDA-MB-435 breast carcinoma xenografts grown in nude mice, as described below. Anti-mouse CD31 was used to deplete the tumor cell mixture of blood vessel endothelial cells prior to rescuing phage bound to the CD31-negative cell population. By the third ex vivo round, the phage pool bound a tumor cell suspension approximately 350-fold over control, nonrecombinant phage. The ex vivo preselected phage pool then was subjected to an in vivo selection round by injection into the tail vein of a nude mouse bearing an MDA-MB-435 tumor. Phage were then rescued from harvested xenograft tumor tissue.
Xenografts, tumor cell suspensions and ex vivo selections were performed essentially as follows. Nude Balb/c mice were subcutaneously injected with 1 x 10^6 MDA-MB-435 tumor cells to generate breast carcinoma xenografts. Human MDA-MB-435 breast carcinoma xenograft tumors were harvested 9 to 12 weeks after implantation, and tumor cell suspensions prepared using collagenase (0.5 mg/ml, Sigma).
The suspension was subjected to serial washes with 1% BSA in DME to remove unbound phage. […]

[5] = concentration of 10 µM; cited from earlier work
cultured KRIB cells = assay: Internalization of fluorescein-labeled peptide by cultured KRIB cells; format: cell-based, human
[6] = tested on: cultured MDA-MB-435 tumor cells; assay: Internalization and subcellular localization in cultured MDA-MB-435 cells; format: cell-based, Human; settings: one to five hours at 37°C; Figure 2
Description: A fluorescein-conjugated CGNKRTRGC (SEQ ID NO: 1) peptide was utilized to further analyze cellular internalization and subcellular localization. […] Natl. Acad. Sci. 97:13003 (2000). The fluorescein-conjugated peptides were incubated with cultured MDA-MB-435 tumor cells for one to five hours at 37°C. […] Cultured 435 cells also internalized the CGNKRTRGC (SEQ ID NO: 1) phage, although the phage accumulated in the cytoplasm of the cells.

Substance: CGNKRTRGC [CGNKRTRGC (SEQ ID NO: 1)]
- fluorescence in normal tissues (normal tissues): seen only in the kidney tubuli
- accumulation in single cells within the tumor ([1]; fluorescein-labeled peptide): accumulated in VEGFR-3 positive single cells within the tumor
- co-localization with the macrophage marker F4/80 ([1]; mouse, in vivo): lack of co-localization
- trypan blue uptake relative to cultures incubated with control peptide ([2]; four hours incubation, 37°C, control peptide SEQ ID NO: 3): at least 7 fold
- cytotoxic effect as compared to control peptide SEQ ID NO: 3 ([2]; later time points (1, 2 or 4 hours), Figure 7): significantly enhanced cytotoxic effect
- mean tumor volume compared to mice administered PBS alone [3]: at least several fold less
- inhibition of binding of phage displaying the same peptide sequence [4]: inhibited binding

Substance: D(KLAKLAK)2
- mitochondrial swelling [5]: marked mitochondrial swelling

Substance: fluorescein-conjugated CGNKRTRGC (SEQ ID NO: 1) peptide: Fluorescein-conjugated CGNKRTRGC (SEQ ID NO: 1) peptide (cysteine pairing not given here; also: fluorescein-conjugated)
- internalization and nuclear localization in vivo ([1]; Figure 5): internalized and transported into nuclei in vivo
- internalization and nuclear localization in vivo ([1]; Figure 5, listed as fluorescein-conjugated peptide (SEQ ID NO: 1)): accumulated in the nuclei lining the vessel-like structures
- co-localization with blood vessels labeled with biotin-conjugated tomato lectin ([1]; Figures 3A-C): notable lack of co-localization
- co-localization with lymphatic markers VEGFR-3 and LYVE-1 ([1]; intravenously injected, Figure 5): co-localized with VEGFR-3 and LYVE-1 staining in 435 tumor tissue
- blood vessel markers CD31 and Meca-32 on the vessels in which the substance localized ([1]; tail vein injection): negative for the CD31 and Meca-32 blood vessel markers
- localization within 435 tumor ([1]; tail vein injection): localized in vessel-like structures and in individual cells within the tumor
- internalization by cultured KRIB cells (cultured KRIB cells): internalized
- uptake and subcellular localization of fluorescein-conjugated peptide [6]: taken up by the 435 cells and translocated into the cell nucleus
